Data as given in publication PMC4311242 (2015).

Legend:
[1] = test system: kanamycin-binding DNA aptamer (DNA, aptamer) TGGGGGTTGAGGCTAAGCCGA; assay: TO fluorescent intercalator displacement; conditions: 10 mM NaCl, 10 mM Tris-HCl pH 7.2, 25 °C
[2] = test system: kanamycin-binding DNA aptamer (DNA, aptamer) TGGGGGTTGAGGCTAAGCCGA; assay: fluorescence enhancement; conditions: 10 mM NaCl; 10 mM Tris-HCl pH 7.2, 25 °C; excitation 501 nm, emission 530 nm
[3] = test system: Mut1 (DNA, aptamer) TGGGGGTTGAAACTAAGCCGA; assay: fluorescence enhancement; conditions: 10 mM NaCl; 10 mM Tris-HCl pH 7.2, 25 °C; excitation 501 nm, emission 530 nm
[4] = test system: Mut2 (DNA, aptamer) TGGAAATTGAGGCTAAGCCGA; assay: TO fluorescent intercalator displacement; conditions: 10 mM NaCl; 10 mM Tris-HCl pH 7.2, 25 °C; TO displaced; affinity comparable to parent aptamer
[5] = TO tracer 3.5:1 to DNA, tested at 20 µM

binding [1, 5]	SMILES	also measured
no	CN(C)[C@@H]1C(O)=C(C(N)=O)C(=O)[C@@]2(O)C(O)=C3C(=O)c4c(O)ccc(Cl)c4[C@@](C)(O)[C@H]3C[C@@H]12	–
–	CN1C(=Cc2cc[n+](C)c3ccccc23)Sc2ccccc21	binding [2]: yes; binding [3]: weak
no	CN[C@@H]1[C@H](O[C@H]2[C@H](O[C@H]3[C@H](O)[C@@H](O)[C@H](N=C(N)N)[C@@H](O)[C@@H]3N=C(N)N)O[C@@H](C)[C@]2(O)C=O)O[C@@H](CO)[C@H](O)[C@H]1O	–
no	CN(C)[C@@H]1C(=O)C(C(N)=O)=C(O)[C@@]2(O)C(=O)C3=C(O)c4c(O)cccc4[C@@](C)(O)[C@H]3[C@H](O)[C@@H]12	–
–	NC[C@H]1O[C@H](O[C@H]2[C@H](O)[C@@H](O[C@H]3O[C@H](CO)[C@@H](O)[C@H](N)[C@H]3O)[C@H](N)C[C@@H]2N)[C@H](O)[C@@H](O)[C@@H]1O	binding [4]: yes; binding ([1]; TO displaced, kanamycin 0.1-100 µM): yes
no	COc1cc(NS(=O)(=O)c2ccc(N)cc2)nc(OC)n1	–
no	CC1(C)S[C@@H]2[C@H](NC(=O)[C@H](N)c3ccccc3)C(=O)N2[C@H]1C(=O)O	–
no	O=C(N[C@H](CO)[C@H](O)c1ccc([N+](=O)[O-])cc1)C(Cl)Cl	–
